Measurements taken from patent US11033538B2, “Dosing regimens for the treatment of lysosomal storage diseases using pharmacological chaperones” (Amicus Therapeutics, Inc., priority 2007, dated 2021).
Values joined by “and” are separate entries in the source; they are usually repeats but may differ in a detail not shown here. Equal values may be shown once. Marks after values point to notes of the source that are not given here.

What was measured:
GL-3 [1] = assay: Example 6, kidney biopsy GL-3 histology; assay type: in vivo, human
Protocol: (§1) Four male patients received a single 150 mg Q.O.D for 12 weeks (Group B); while five male patients received 150 mg Q.O.D. for 24 weeks (Group C). Finally nine female patients were randomized to receive one of three dosages: 50, 150 or 250 mg Q.O.D for 12 weeks (Group D) (FIG. 8).
Kidney biopsies were performed at baseline, 12 weeks and 24 weeks post-treatment and evaluated for GL-3 deposits in various renal cells. GL-3 presence in the tissue was examined histologically as well as through the use of mass spectroscopy. Light microscopic analysis of kidney biopsies was performed, wherein the accumulation of GL-3 in the tissue was classified in a manner similar to the classification analysis performed in Kidney International, Vol. 62 (2002), pp. 1933-1946 which is hereby incorporated by reference. Cells were classified as containing no GL-3 accumulation (“0”); mild GL-3 accumulation (“1”); moderate GL-3 accumulation (“2”); or severe GL-3 accumulation (“3”).
Kidney GL-3 levels were assessed using histological and mass spectroscopic analysis. Kidney biopsies were examined in four of the “good” responders, two of the “moderate” responders, and two of the “non” responders. Accumulation of GL-3 was examined in three different kidney cell types: interstitial capillaries, distal tubules, and podocytes.

[2] = test system: patients with Fabry disease; assay: Example 15, echocardiography; assay type: in vivo, human; conditions: for decrease in interventricular septal wall thickness from baseline: up to 24 months
Protocol: Left ventricular mass index, left posterior wall thickness, diastolic, interventricular septum thickness, diastolic and other parameters were assessed through blinded, centralized evaluation. The baseline visit of extension study AT1001-041/NCT01458119 was used as the last assessment.

Fabry patients [3] = assay: Example 6, renal function (eGFR); assay type: in vivo, human; conditions: good responders
Protocol: Renal function was evaluated using glomerular filtration rate (GFR).
Renal function was measured using glomerular filtration rate (GFR) (MDRD equation was used to estimate GFR using serum creatinine adjusted for age, gender and race). Approximately half of all Fabry patients have an abnormally low GFR (<90 ml/min/1.73 m^2). […] As shown in FIG. 17A-B, the good responders maintained a mean eGFR within the normal eGFR range of 90-120 ml/min/1.73 m^2 during the entire treatment procedure (FIG. 17A), while the predicted mean eGFR level of untreated individual is projected to continue declining below 90 ml/min/1.73 m^2 (FIG. 17B).

GL-3 [4] = assay: Example 15, 24-hour urine GL-3; assay type: in vivo, human
Protocol: Plasma lyso-Gb3 and 24-hour urine GL-3 were analyzed by liquid chromatography-mass-spectroscopy using a novel stable isotope-labeled internal standard, 13C6-lyso-Gb3 (lower-limit-of-quantification: 0.200 ng/mL, 0.254 nmol/L).

[5] = test system: patients with Fabry disease; assay: Example 15, Gastrointestinal Symptoms Rating Scale; assay type: in vivo, human
Protocol: Patient-reported outcomes were assessed using the Gastrointestinal-Symptoms-Rating-Scale (GSRS), Short Form-36v2TM and Brief-Pain-Inventory-Pain-Severity-Component.

Fabry patients [6] = assay: Example 6, cardiac analysis; assay type: in vivo, human
Protocol: In addition to the biopsies described above, MRIs, electrocardiograms and echocardiograms with strain rate evaluations was performed at baseline and periodically throughout the study to assess cardiac morphology (e.g., left ventricular hyertrophy) and cardiac function (e.g., ejection fraction and conduction/rhythm abnormalities).

GL-3 [7] = assay: Example 8, GL-3 in tissues of transgenic mice expressing R301Q; assay type: in vivo; conditions: 100 mg/kg ad libitum, four weeks
[8] = Phase Ib twice-daily dose study of DGJ in healthy volunteers, plasma and urine pharmacokinetics; assay type: in vivo, human
Protocol: Subjects were housed in the treatment facility from 14 hours prior to dosing until 24 hours after dosing. Meals were controlled by schedule and subjects remained abulatory for 4 hours post drug administration
Blood samples (10 mL each) were collected in blood collection tubes containing EDTA before dosing and at the following times thereafter: 0.25, 0.5, 0.75, 1, 1.5, 2, 3, 4, 5, 6, 7, 8, 9, 10, 11 and 12 hours. Blood samples were cooled in an ice bath and centrifuged under refrigeration as soon as possible. Plasma samples were divided into two aliquots and stored at […]. pending assay. At the end of the study, all samples were transferred to MDS Pharma Services Analytical Laboratories (Lincoln) for analysis.

GL-3 [9] = assay: Example 6, urinalysis of GL-3; assay type: in vivo, human
Protocol: as §1
Urine was analysed at baseline and periodically every 2-6 weeks for GL-3.

[10] = Example 13, tissue half-life of DGJ; assay type: in vivo, mice; conditions: male, hR301Q GLA Tg/KO, mouse, oral; skin, heart, kidney; after 4 weeks 100 mg/kg/day
[11] = All Patients, OLE DGJ treatment, (95% CI)
[12] = Patients with Symptoms at BL, OLE DGJ treatment, (95% CI)
[13] = Patients with Symptoms at BL, Stage 1
[14] = human, plasma, oral, 50 mg, 50 mg bid, Day 1
[15] = human, plasma, oral, 50 mg, 50 mg bid, Day 7
[16] = human, plasma, oral, 150 mg, 150 mg bid, Day 1
[17] = human, plasma, po, 150 mg, oral 150 mg DGJ hydrochloride

For `OC[C@H]1NC[C@H](O)[C@@H](O)[C@H]1O` [DGJ, (2R,3S,4R,5S)-2-(hydroxymethyl) piperdine-3,4,5-triol], the “distal tubule GL-3 (histology)” value (GL-3 [1]; male good responders) was “three of the good responders experienced a decrease in GL-3”, the “interstitial capillary GL-3 (histology)” value (GL-3 [1]; male good responders) was “one patient displayed a decrease in interstitial capillary GL-3” and the “overall GL-3 levels in kidney biopsies” value (GL-3 [1]; male good responders) was “two of the good responders showed a decrease in GL-3”. The “podocyte GL-3 (histology)” value (GL-3 [1]; male good responders) was “all four good responders experienced no change”, the “overall GL-3 levels in kidney biopsies” value (GL-3 [1]; male moderate responders) was “two patients showed a decrease in GL-3 levels” and the “overall GL-3 levels in kidney biopsies” value (GL-3 [1]; male non-responders) was “One non-responders showed a decrease in GL-3 levels”. For the same compound, the “LVMi change from baseline (±SD)” value ([2]; 30/36 months of treatment, ±21.5) was −7.8 g/m^2, the “LVMi change from baseline” value ([2]; 30/36 months, patients with baseline LVH (n=4)) was −30.0±17.5 g/m^2 and the “left ventricular posterior wall thickness” value ([2]; in vivo) was “stable for up to 24 months”. For the same compound, the “decrease in interventricular septal wall thickness from baseline” value [2] was 5.2%, the “decrease in interventricular septal wall thickness from baseline” value ([2]; ±0.051, baseline 1.17 cm±0.057) was 0.061 cm and the “mean eGFR maintained during the entire treatment” value (Fabry patients [3]) was 90-120 ml/min/1.73 m^2. For the same compound, the “mean change in 24-hour urine GL-3 substrate (±SEM) concentration” value (GL-3 [4]; baseline to month 6, suitable mutants, p=0.44 vs placebo) was −361±169 ng/mg creatinine, the “24-hour urine GL-3 substrate (±SEM) concentration reached” value (GL-3 [4]; month 6, suitable mutants) was 555±151 ng/mg creatinine and the “GSRS Diarrhea, change from Baseline to Month 6” value ([5]; All Patients, ITT-suitable, Stage 1 double-blind, p = 0.03) was −0.3*^2. The “GSRS Abdominal Pain, change to Month 24” value [5, 11] was −0.2 (−0.5, +0.1), the “GSRS Constipation, change to Month 24” value [5, 11] was −0.4 (−0.7, +0.0)*^5 and the “GSRS Diarrhea, change from Baseline (DGJ) or Month 6 (Placebo) to Month 24” value [5, 11] was −0.5 (−0.9, −0.1)*^4. The “GSRS Indigestion, change to Month 24” value [5, 11] was −0.4 (−0.7, −0.04)*^4, the “GSRS Reflux, change to Month 24” value [5, 11] was −0.2 (−0.5, 0.2) and the “GSRS Abdominal Pain, change from Baseline to Month 6” value ([5]; All Patients, Stage 1) was 0.0. For the same compound, the “GSRS Constipation, change from Baseline to Month 6” value ([5]; All Patients, Stage 1) was “+0.1”, the “GSRS Indigestion, change from Baseline to Month 6” value ([5]; All Patients, Stage 1) was −0.1 and the “GSRS Reflux, change from Baseline to Month 6” value ([5]; All Patients, Stage 1) was −0.1. For the same compound, the “GSRS Abdominal Pain, change to Month 24” value [5, 12] was −0.2 (−0.6, 0.1), the “GSRS Constipation, change to Month 24” value [5, 12] was −0.5 (−1.1, +0.0)*^5 and the “GSRS Diarrhea, change to Month 24” value [5, 12] was −1.0 (−1.5, −0.4)*^4. The “GSRS Indigestion, change to Month 24” value [5, 12] was −0.5 (−0.8, −0.06)*^4, the “GSRS Reflux, change to Month 24” value [5, 12] was −0.6 (−1.5, 0.2) and the “GSRS Abdominal Pain, change from Baseline to Month 6” value [5, 13] was −0.1. The “GSRS Constipation, change from Baseline to Month 6” value [5, 13] was “+0.2”, the “GSRS Diarrhea, change from Baseline to Month 6” value [5, 13] was −0.6 and the “GSRS Indigestion, change from Baseline to Month 6” value [5, 13] was −0.2. For the same compound, the “GSRS Reflux, change from Baseline to Month 6” value ([5]; Patients with Symptoms at BL, Stage 1, p = 0.047) was −0.6*^3, the left ventricle mass (Fabry patients [6]; 2 good responders with abnormally high left ventricle mass, 48 weeks) was “no change in left ventricle mass” and the “decrease in left ventricle mass” value (Fabry patients [6]; one good responder with abnormally high left ventricle mass, 12 weeks) was 8%. The “ejection fraction following treatment” value (Fabry patients [6]; two of three good responders with abnormal ejection fraction before treatment) was over 55%, the “GL-3 aggregates, histology of renal tube and cardiac sections” value (GL-3 [7]) was “presence of GL-3 aggregates was reduced” and the “concentration of GL-3 in the sampled tissues” value (GL-3 [7]) was “reduced”. The “12 h cumulative renal excretion” value ([8]; 50 mg bid, Day 1) was 16% and 16 ± 6%, the “12 h cumulative renal excretion” value ([8]; 50 mg bid, Day 7) was 48% and 48 ± 7% and the Cmin ([8]; 50 mg bid, Day 7) was 0.4 ± 0.03 µM. The “dose dependence of Cmax” value ([8]; 50 mg to 150 mg) was “increased in a dose-proportional manner”, the “12 h cumulative renal excretion” value ([8]; 150 mg bid, Day 1) was 42% and 42 ± 7% and the “12 h cumulative renal excretion” value ([8]; 150 mg bid, Day 7) was 60% and 60 ± 5%. For the same compound, the Cmax ([8]; 150 mg bid, Day 7) was 10.8 ± 1.4 µM, the Cmin ([8]; 150 mg bid, Day 7) was 1.2 ± 0.1 µM and the “time of peak concentrations, on average” value ([8]; all dose levels) was “approximately 3 hours”. The oral availability ([8]; healthy male volunteers) was “orally available”, the Cmax [8, 14] was 2.3 ± 0.3 µM and the Tmax [8, 14] was 2.9 ± 0.4 h. The Cmax [8, 15] was 3.9 ± 0.5 µM, the Tmax [8, 15] was 2.5 ± 0.4 h and the Cmax [8, 16] was 11.3 ± 1.5 µM. It also gave a Tmax [8, 16] of 3.1 ± 0.4 h, a Tmax ([8]; human, plasma, oral, 150 mg, 150 mg bid, Day 7) of 2.9 ± 0.4 h and a half-life ([8]; human, plasma, oral, 50 mg bid, Day 1, read-out: t½ (converted)) of 2.5 h. It also gave a half-life ([8]; human, plasma, oral, 150 mg bid, Day 1, read-out: t½ (converted)) of 2.4 h, a Cmax [8, 17] of 9 µM and a Tmax [8, 17] of 3 h. The half-life ([8]; human, plasma, po, 150 mg, read-out: Half-life (exponential decay) (converted)) was 3 h, the “expected good responders with urine GL-3 decrease greater than 10%” value (GL-3 [9]; female) was 3 of the 5 and the “mean decrease in urine GL-3 levels” value (GL-3 [9]; female expected good responders) was 20%. The “good responders with urine GL-3 decrease greater than 10%” value (GL-3 [9]; male good responders) was “eight of the eleven”, the “mean decrease in urine GL-3 levels” value (GL-3 [9]; male good responders) was 38% and the “urine GL-3 following treatment” value (GL-3 [9]; male moderate and non responders) was “overall increases in urine GL-3”. The half-life [10] was 6 to 7 h.
